# Data taken from patent US20200022970A1, “APPLICATION OF LEVOROTATORY TETRAHYDROPALMATINE TO THE TREATMENT OF DEPRESSION DISORDERS, BIPOLAR AND RELATED DISORDERS, MANIC EPISODES AND ANXIETY DISORDERS” (priority 2018, published 2020).
# Like-named read-outs stand apart in the source and are kept apart here.
# Experiments:
# Male ICR mice [1] = experiment: Tail suspension test; type: in vivo; settings: for influence of flumazenil on antidepressant effect (immobility time): 2.0 mg/kg p.o. 45 minutes prior plus flumazenil 1.25 mg/kg i.p. 15 minutes prior; for oral dose that significantly shortens immobility time (antidepressant effect): 45 minutes prior to testing (imipramine 30 minutes), immobility scored from 2 to 6 min
# Method: Tail suspension test. Male ICR mice 4 to 6 weeks of age were randomized into groups (n=12-20/group). Vehicle (0.9% NaCl), or one of oral l-THP, dl-THP and d-THP (0.1-5.0 mg/kg) was administered 45 minutes prior to testing; or 30 mg/kg oral imipramine was administered 30 minutes prior to testing. In the test, a mouse was taped to a bar by the tail and suspended 15 cm above ground for 6 minutes. The total time of immobility was scored manually from 2 to 6 min during the period of suspension. Decreased time of immobility is indicative of antidepressant effect (Stem et al, 1985). To test whether the antidepressant effect elicited by l-THP or dl-THP can be blocked by the benzodiazepine (BZ) binding site antagonist flumazenil, naïve male 4-6 week old mice were randomly separated into three groups (n=12-20/group). The first group received vehicle (p.o.) 45 minutes prior to test and flumazenil (1.25 mg/kg i.p) 15 minutes prior to test, the second group received l-THP (2.0 mg/kg, p.o) or dl-THP (2.0 mg/kg, p.o.) 45 minutes prior to test and vehicle (i.p) 15 minutes prior to test, and the third group received l-THP (2.0 mg/kg p.o) or dl-THP (2.0 mg/kg p.o) 45 minutes prior to test and flumazenil (1.25 mg/kg i.p) 15 minutes prior to experiment.
# Male ICR mice [2] = experiment: Elevated plus-maze test; type: in vivo; settings: for time spent in the open arms (anxiolytic effect): 45 minutes prior, 5-minute test; for anxiolysis (time spent in open arms): p<0.001
# Method: Elevated plus-maze test. Naive male ICR mice 4 to 6 weeks of age were randomly separated into groups (n=15-20/group). Vehicle (0.9% NaCl), 0.01, 0.05, 0.1, 0.5, 1, 2 and 2.5 mg/kg dl-THP or l-THP, or 1 or 3 mg/kg diazepam was orally administered 45 minutes prior to experiment. The test apparatus consisted of four arms, 25 cm×5 cm each, extended from a center platform of 5 cm×5 cm in the shape of a plus sign. Two of the opposite arms were enclosed by 20 cm opaque high walls, making up the closed arms. The plus maze was elevated 40 cm off the ground. Each mouse was placed onto the center of the maze with head facing an open arm. The frequency and time spent in the open and closed arms were recorded for a period of 5 minutes. An arm entry was recorded when all four paws were inside the arm. Increased number of open-arm entries and percentage of time spent in them are indicative of an anxiolytic effect on the mice (Kalueff and Tuohimaa, 2004; Treit et al., 1993). In addition, the number of closed-arm entries provided an index of locomotor activity (Boguszewski and Zagrodzka, 2002). […] The first group received vehicle (p.o.) 45 minutes prior to test and flumazenil (1.25 mg/kg i.p) 15 minutes prior to test, the second group received l-THP (1.0 mg/kg, p.o) 45 minutes prior to test and vehicle (i.p) 15 minutes prior to test, and the third group received l-THP (1.0 mg/kg p.o) 45 minutes prior to test and flumazenil (1.25 mg/kg i.p) 15 minutes prior to test.
# mice [3] = settings: oral administration; cited from earlier work
# Male ICR mice [4] = experiment: Horizontal wire test (myorelaxant effect); type: in vivo
# Method: Male ICR mice of 4 to 6 weeks were randomly separated into groups (n=15-20 per group). Vehicle (0.9% NaCl), 0.01-2.5 mg/kg dl-THP or l-THP, and 1 and 3 mg/kg diazepam were orally administered 45 minutes prior to test. Locomotor activity was measured based on crossings of infrared beams. […] Myorelaxant activity was measured using the horizontal wire test. In this test, mouse was lifted by the tail and allowed to grasp onto a horizontally strung wire (1 mm diameter, 20 cm long and placed 20 cm above the table) with their forepaws and released. For each mouse, the number of falls in 60 seconds was recorded.
# Male ICR mice [5] = experiment: Locomotor activity side effect test (crossings of infrared beams); type: in vivo; settings: 3 mg/kg, 45 minutes prior; p<0.05
# Method: Manic-like behavior was induced accomplished using the method of Pathak et al. (2015). Male ICR mice of 6 to 7 week were given daily injection of 1.8 mg/kg d-amphetamine (amphetamine-sensitized mice) or vehicle (0.9% NaCl vehicle treated, viz. mice unsensitized by amphetamine) for 5 days. Amphetamine was then withdrawn for 7 days. The locomotor activity test ‘ZIL-2’ apparatus (Beijing Institute of Materia Medica) employed consisted of a transparent plastic cylinder of 20 cm diameter×12 cm height equipped with six evenly spaced sets of infrared beam-photocell. The number of transitions made by the mouse across the beams as detected by the photocells was recorded automatically over a period of 5 minutes. The level of locomotor activity was scored by the number beam-crossings made by the mouse. In the test, amphetamine sensitized mice were randomly separated into groups (m=12-20 per group). The Amp group of mice received 0.9 mg/kg amphetamine injection 10 minutes prior to testing. […]
# Male ICR mice of 4 to 6 weeks were randomly separated into groups (n=15-20 per group). […] Locomotor activity was measured based on crossings of infrared beams. […] Myorelaxant activity was measured using the horizontal wire test. […] For each mouse, the number of falls in 60 seconds was recorded.
# rats [6] = settings: 10, 20 and 40 mg/kg i.p., mediated by D2 receptors; cited from earlier work
# female ICR mice = experiment: Crawley's sociability and preference for social novelty test (three-chamber box); type: in vivo; settings: 45 minutes prior
# Method: In Crawley's test, female ICR mice of 8 to 10 weeks were randomized into groups (n=12-20/group), and orally administered 45 minutes prior to testing with vehicle (0.9% NaCl), 0.1 mg/kg l-THP or 0.5 mg/kg l-THP. The test apparatus comprised a rectangular, three-chamber box. Each chamber was 19×45 cm, and the dividing walls between chambers were made of clear Plexiglas. The central chamber was connected to each side chamber with a removable wall. Two identical wire cylindrical containers with removable lids that were large enough to hold a single mouse each were placed vertically inside the apparatus, one in the middle of each side chamber. Each of these containers consisted of a cup made of metal wires to allow for air exchange between the interior and exterior of the cylinder but small enough to prevent direct physical interactions between an animal on the inside with one on the outside, and a removable lid. In the beginning of the test, the two cylindrical containers in the two side chambers were empty, and the subject mouse was placed at the center of the middle chamber for adaptation. After 5 minutes, one social-object mouse (stranger-1) was placed inside the cylinder in one of the side chambers. The placement of strange-1 was systematically changed between the two side chambers between trials. Then the walls separating the middle chamber from the two side chambers were removed to allow the subject mouse free access to all three chambers. In a first 10-minute session, the duration and number of direct contacts between the subject mouse and the container cup housing or not housing the stranger-1 mouse were recorded individually. At the end of this session, a second social-object mouse (stranger-2) was placed in the wire container cup that was empty during the first 10-minute session. Then the duration and number of direct contacts between the subject mouse and the two container cups holding stranger-1 mouse and stranger-2 mouse were recorded separately during a second 10-minute session. The first 10-minute session provided an estimate of the sociability of the subject mouse in terms of its preference if any to spend more time with the container holding the stranger-1 mouse compared to the empty container. The second 10-minute session provided an estimate of the preference of the subject mouse for social novelty in terms of its preference if any to associate with the container holding the novel stranger-2 mouse compared to the container holding the more familiar stranger-1 mouse (Moy et al 2004; Kaidanovich-Beilin et al., 2011).
# rats [7] = settings: PTSD rats, cited from earlier work
# rats [8] = settings: cited from earlier work
# rats [9] = settings: PTSD rats, cited from earlier work; remark: listed apart in the source
# mice [10] = settings: 6.25, 12.5, and 18.75 mg/kg i.g.; cited from earlier work
# [11] = tested on: amphetamine sensitized mice; experiment: Test for antimanic-like behavior: locomotor activity of amphetamine sensitized mice; type: in vivo; settings: 0.9 mg/kg amphetamine 10 minutes prior
# Method: Manic-like behavior was induced accomplished using the method of Pathak et al. (2015). Male ICR mice of 6 to 7 week were given daily injection of 1.8 mg/kg d-amphetamine (amphetamine-sensitized mice) or vehicle (0.9% NaCl vehicle treated, viz. mice unsensitized by amphetamine) for 5 days. Amphetamine was then withdrawn for 7 days. The locomotor activity test ‘ZIL-2’ apparatus (Beijing Institute of Materia Medica) employed consisted of a transparent plastic cylinder of 20 cm diameter×12 cm height equipped with six evenly spaced sets of infrared beam-photocell. The number of transitions made by the mouse across the beams as detected by the photocells was recorded automatically over a period of 5 minutes. The level of locomotor activity was scored by the number beam-crossings made by the mouse. In the test, amphetamine sensitized mice were randomly separated into groups (m=12-20 per group). The Amp group of mice received 0.9 mg/kg amphetamine injection 10 minutes prior to testing. The l-THP groups received oral l-THP (0.05, 0.1 and 0.2 mg/kg) 30 minutes prior to testing, and 0.9 mg/kg amphetamine injection 10 minutes prior to testing. The Veh mice received vehicle orally 30 minutes prior to testing and vehicle injection 10 minutes prior to testing.
smiles,measurement,setting,value
"COc1cc2c(cc1OC)[C@@H]1Cc3ccc(OC)c(OC)c3CN1CC2 (racemic) [dl-THP, dl-tetrahydropalmatine]",influence of flumazenil on antidepressant effect (immobility time),Male ICR mice [1],inhibition of the antidepressant effects
same,lowest oral dose eliciting antidepressant effect based on immobility time,Male ICR mice [1],≥ 2.0 mg/kg
same,oral dose that significantly shortens immobility time (antidepressant effect),Male ICR mice [1],2.0 to 5.0 mg/kg
same,time spent in the open arms (anxiolytic effect),Male ICR mice [2]; 1.0 mg/kg oral,significant increase in time spent in the open arms
same,time spent in the open arms (anxiolytic effect),Male ICR mice [2]; 2.0 mg/kg oral,significant increase in time spent in the open arms
same,lowest oral dose active for anxiolysis,Male ICR mice [2],≥ 1.0 mg/kg
same,anxiolytic effects: entries into open arms without significant change in entries into closed arms,mice [3],selective anxiolytic effects
CN1C(=O)CN=C(c2ccccc2)c2cc(Cl)ccc21 [Diazepam],myorelaxant effect (number of falls in 60 seconds),Male ICR mice [4]; 3 mg/kg,significant (p<0.05) myorelaxant effect
same,locomotor activity (crossings of infrared beams),Male ICR mice [5],significant decrease
same,anxiolysis (time spent in open arms),Male ICR mice [2]; diazepam 1 mg/kg,significant anxiolysis
same,anxiolysis (time spent in open arms),Male ICR mice [2]; diazepam 3 mg/kg,significant anxiolysis
CN(C)CCCN1c2ccccc2CCc2ccccc21 [Imipramine],oral dose that significantly shortens immobility time (antidepressant effect),Male ICR mice [1],30 mg/kg
"COc1cc2c(cc1OC)[C@@H]1Cc3ccc(OC)c(OC)c3CN1CC2 [l-THP, levorotatory tetrahydropalmatine]",influence of flumazenil on antidepressant effect (immobility time),Male ICR mice [1],inhibition of the antidepressant effects
same,lowest oral dose eliciting antidepressant effect based on immobility time,Male ICR mice [1],≥ 0.5 mg/kg
same,oral dose that significantly shortens immobility time (antidepressant effect),Male ICR mice [1],0.5 to 5.0 mg/kg
same,antinociceptive effects,rats [6],dose-dependent antinociceptive effects
same,preference for social novelty: stranger-2 vs familiar stranger-1 mouse,"female ICR mice; 0.1 mg/kg oral, p<0.001",showed preference for the novel stranger-2 mouse
same,sociability: time with stranger-1 mouse container vs empty container,"female ICR mice; 0.1 mg/kg oral, p<0.001",significant enhancement of sociability
same,preference for social novelty: stranger-2 vs familiar stranger-1 mouse,"female ICR mice; 0.5 mg/kg oral, p<0.01",showed preference for the novel stranger-2 mouse
same,sociability: time with stranger-1 mouse container vs empty container,"female ICR mice; 0.5 mg/kg oral, p<0.01",significant enhancement of sociability
same,antidepressant effect based on sucrose intake or immobility time in the forced swimming test,rats [7]; daily 50 mg/kg i.p.,significant antidepressant effect
same,antidepressant effect based on sucrose intake or immobility time in the forced swimming test,rats [7]; daily 10 or 20 mg/kg i.p.,not
same,locomotion,rats [8]; 3 mg/kg i.p.,failed to do so
same,locomotion,rats [8]; 10 mg/kg i.p.,inhibited locomotion
same,anxiolytic effect based on the elevated plus-maze test,rats [9]; daily 50 mg/kg i.p.,significant anxiolytic effect
same,anxiolytic effect based on the elevated plus-maze test,rats [9]; daily 10 or 20 mg/kg i.p.,not
same,myorelaxant effect (number of falls in 60 seconds),"Male ICR mice [4]; male, ICR, mouse, in vivo, 45 min",significant (p<0.01) myorelaxant effect
same,myorelaxant effect (number of falls in 60 seconds),"Male ICR mice [4]; mouse, in vivo",did not induce any significant myorelaxant effect
same,locomotor activity,mice [10],did not affect locomotor activity
same,time spent in the open arms (anxiolytic effect),Male ICR mice [2]; 0.1 mg/kg oral,significant increase in time spent in the open arms
same,time spent in the open arms (anxiolytic effect),Male ICR mice [2]; 0.5 mg/kg oral,significant increase in time spent in the open arms
same,influence of flumazenil on anxiolytic effect (time spent in open arms),Male ICR mice [2]; 1.0 mg/kg p.o. 45 minutes prior plus flumazenil 1.25 mg/kg i.p. 15 minutes prior,inhibition of the anxiolytic effect
same,time spent in the open arms (anxiolytic effect),Male ICR mice [2]; 2.5 mg/kg oral,significant increase in time spent in the open arms
same,lowest oral dose active for anxiolysis,Male ICR mice [2],≥ 0.1 mg/kg
same,level of locomotor activity relative to Amp mice (antimanic effect),[11]; 0.05 mg/kg oral 30 minutes prior,significantly reduced the level locomotor activity
same,level of locomotor activity relative to Amp mice (antimanic effect),[11]; 0.1 mg/kg oral 30 minutes prior,significantly reduced the level locomotor activity
same,level of locomotor activity relative to Amp mice (antimanic effect),[11]; 0.2 mg/kg oral 30 minutes prior,significantly reduced the level locomotor activity
